The values that follow come from US10526295B2, “Nuclear transport modulators and uses thereof” (Karyopharm Therapeutics Inc., priority 2015, dated 2020).

Holding throughout (assay type): cell-based
One test has as its system MM1S cells. In words: MTT cell proliferation assay (MM1S). The note with it: Homo sapiens, MM1.S; MM1S multiple myeloma cells; approximately 64-72 hours incubation; 1 nM to 30 μM. How it is done:
(§1) The MTT cell proliferation assay was used to study the cytotoxic properties of the compounds. The assay was performed according to the method described by Roche Molecular Biochemicals, with minor modifications. The assay is based on the cleavage of the tetrazolium salt, MTT, in the presence of an electron-coupling reagent. The water-insoluble formazan salt produced must be solubilized in an additional step. Cells grown in a 96-well tissue culture plate were incubated with the MTT solution for approximately 4 hours. After this incubation period, a water-insoluble formazan dye formed. After solubilization, the formazan dye was quantitated using a scanning multi-well spectrophotometer (ELISA reader). […] The cells were seeded at 5,000-10,000 cells in each well of 96-well plate in 100 μL of fresh culture medium and were allowed to attach overnight. The stock solutions of the compounds were diluted in 100 μL cell culture medium to obtain eight concentrations of each test compound, ranging from 1 nM to 30 μM. […] All optical densities were measured at 490 nm using a Vmax Kinetic Microplate Reader (Molecular Devices). In most cases, the assay was performed in duplicate and the results were presented as a mean percent inhibition to the negative control±SE. The following formula was used to calculate the percent of inhibition: Inhibition (%)=(1−(ODo/OD))×100.
(§2) The compounds were tested against Z138, MM1S and 3T3 cells. The Z138 cell line is a mature B-cell acute lymphoblastic leukemia cell line derived from a patient with chronic lumphocytic leukemia. The MM1S cell line was established from the peripheral blood of a human multiple myeloma patient. 3T3 cells are standard fibroblast cells; they were originally isolated from Swiss mouse embryo tissue.
Background: Tetrazolium assays rely on reduction of a dye to a coloured formazan, in cell work by metabolically active cells.

The test system of a further test is Z138 cells. The experiment in a line: MTT cell proliferation assay (Z138). The note with it: Homo sapiens, Z-138, approximately 64-72 hours incubation, 1 nM to 30 μM. How it is done: as §1, §2
The subject of a further test is 3T3 cells. The experiment in a line: MTT cell proliferation assay (3T3). The note with it: Mus musculus, NIH3T3; 3T3 fibroblast cells; approximately 64-72 hours incubation; 1 nM to 30 μM. How it is done:
as §1, §2

Usually IC50 stands for the midpoint of a concentration-inhibition curve. Low values mean inhibition by little substance, high ones a need for much substance. On to `CN(C)S(=O)(=O)c1ccc(/C(=C\n2cnc(-c3cc(C(F)(F)F)cc(C(F)(F)F)c3)n2)C(N)=O)cc1` [Compound 104, (E)-3-(3-(3,5-bis(trifluoromethyl)phenyl)-1H-1,2,4-triazol-1-yl)-2-(4-(N,N-dimethylsulfamoyl)phenyl)acrylamide], for which the figures for the IC50 with MM1S cells, in the test with Z138 cells and with 3T3 cells were 100 to 5000 nM, 100 to 5000 nM and above 30 µM, respectively.
Consider `CN1CCN(S(=O)(=O)c2cccc(/C(=C\n3cnc(-c4cc(C(F)(F)F)cc(C(F)(F)F)c4)n3)C(N)=O)c2)CC1` [Compound 124, (E)-3-(3-(3,5-bis(trifluoromethyl)phenyl)-1H-1,2,4-triazol-1-yl)-2-(3-(4-methylpiperazin-1-ylsulfonyl)phenyl)acrylamide], for which the IC50 was 100 to 5000 nM with MM1S cells, 100 to 5000 nM in the test on Z138 cells and above 30 µM with 3T3 cells.
Consider `NC(=O)/C(=C/n1cnc(-c2cc(C(F)(F)F)cc(C(F)(F)F)c2)n1)c1ccc(S(=O)(=O)N2CCC(F)CC2)cc1` [Compound 114, (E)-3-(3-(3,5-bis(trifluoromethyl)phenyl)-1H-1,2,4-triazol-1-yl)-2-(4-(4-fluoropiperidin-1-ylsulfonyl)phenyl)acrylamide], for which the values for the concentration for half-maximal inhibition (IC50) with MM1S cells, in the test on Z138 cells and in the test with 3T3 cells were below 100 nM, below 100 nM and below 0.1 µM, respectively.
As for `NC(=O)/C(=C/n1cnc(-c2cc(C(F)(F)F)cc(C(F)(F)F)c2)n1)c1ccc(S(=O)(=O)C2CC2)cc1` [Compound 101, (E)-3-(3-(3,5-bis(trifluoromethyl)phenyl)-1H-1,2,4-triazol-1-yl)-2-(4-(cyclopropylsulfonyl)phenyl)acrylamide], the half-inhibitory concentration (IC50) in the test with MM1S cells was below 100 nM; in the test on Z138 cells, below 100 nM; in the test with 3T3 cells, below 0.1 µM.
As for `CS(=O)(=O)c1ccc(/C(=C\n2cnc(-c3cc(C(F)(F)F)cc(C(F)(F)F)c3)n2)C(N)=O)cc1` [Compound 103, (E)-3-(3-(3,5-bis(trifluoromethyl)phenyl)-1H-1,2,4-triazol-1-yl)-2-(4-(methylsulfonyl)phenyl)acrylamide], the figures for the half-inhibitory concentration (IC50) with MM1S cells, in the test with Z138 cells and in the test on 3T3 cells were below 100 nM, 100 to 5000 nM and above 30 µM, respectively.
In the same order, the values of `NC(=O)/C(=C/n1cnc(-c2cc(C(F)(F)F)cc(C(F)(F)F)c2)n1)c1ccc(S(=O)(=O)N2CC(F)(F)C2)cc1` [Compound 111, (E)-3-(3-(3,5-bis(trifluoromethyl)phenyl)-1H-1,2,4-triazol-1-yl)-2-(4-(3,3-difluoroazetidin-1-ylsulfonyl)phenyl)acrylamide] are below 100 nM, below 100 nM and 0.1 to 5 µM.
For the compound `NC(=O)/C(=C/n1cnc(-c2cc(C(F)(F)F)cc(C(F)(F)F)c2)n1)c1ccc(S(=O)(=O)N2CC[C@@H](F)C2)cc1` [Compound 117, (R,E)-3-(3-(3,5-bis(trifluoromethyl)phenyl)-1H-1,2,4-triazol-1-yl)-2-(4-(3-fluoropyrrolidin-1-ylsulfonyl)phenyl)acrylamide], the concentration for half-maximal inhibition (IC50) with MM1S cells was below 100 nM; in the test with Z138 cells, below 100 nM; in the test with 3T3 cells, 0.1 to 5 µM.
For the compound `NC(=O)/C(=C/n1cnc(-c2cc(C(F)(F)F)cc(C(F)(F)F)c2)n1)c1ccc(S(=O)(=O)NC2CC2)cc1` [Compound 100, (E)-3-(3-(3,5-bis(trifluoromethyl)phenyl)-1H-1,2,4-triazol-1-yl)-2-(4-(N-cyclopropylsulfamoyl)phenyl)acrylamide], the IC50 in the test on MM1S cells is below 100 nM; in the test on Z138 cells, below 100 nM; in the test on 3T3 cells, above 30 µM.
`CC1(C)CN(S(=O)(=O)c2ccc(/C(=C\n3cnc(-c4cc(C(F)(F)F)cc(C(F)(F)F)c4)n3)C(N)=O)cc2)CCO1` [Compound 116, (E)-3-(3-(3,5-bis(trifluoromethyl)phenyl)-1H-1,2,4-triazol-1-yl)-2-(4-(2,2-dimethylmorpholinosulfonyl)phenyl)acrylamide]: the results for the IC50 in the test on MM1S cells, in the test on Z138 cells and in the test with 3T3 cells were 100 to 5000 nM, 100 to 5000 nM and 0.1 to 5 µM, respectively.
Regarding `NC(=O)/C(=C/n1cnc(-c2cc(C(F)(F)F)cc(C(F)(F)F)c2)n1)c1ccc(S(=O)(=O)N2CC(F)C2)cc1` [Compound 110, (E)-3-(3-(3,5-bis(trifluoromethyl)phenyl)-1H-1,2,4-triazol-1-yl)-2-(4-(3-fluoroazetidin-1-ylsulfonyl)phenyl)acrylamide], the 50% inhibitory concentration (IC50) with MM1S cells is below 100 nM; in the test with Z138 cells it was below 100 nM; in the test on 3T3 cells it was 0.1 to 5 µM.
With `NC(=O)/C(=C/n1cnc(-c2cc(C(F)(F)F)cc(C(F)(F)F)c2)n1)c1ccc(S(=O)(=O)N2CCOCC2)cc1` [Compound 108, (E)-3-(3-(3,5-bis(trifluoromethyl)phenyl)-1H-1,2,4-triazol-1-yl)-2-(4-(morpholinosulfonyl)phenyl)acrylamide], the values for the IC50 with MM1S cells, in the test with Z138 cells and in the test on 3T3 cells were below 100 nM, 100 to 5000 nM and 0.1 to 5 µM, respectively.
With `NC(=O)/C(=C/n1cnc(-c2cc(C(F)(F)F)cc(C(F)(F)F)c2)n1)c1cccc(S(=O)(=O)N2CCC(F)CC2)c1` [Compound 120, (E)-3-(3-(3,5-bis(trifluoromethyl)phenyl)-1H-1,2,4-triazol-1-yl)-2-(3-(4-fluoropiperidin-1-ylsulfonyl)phenyl)acrylamide], the 50% inhibitory concentration (IC50) was 100 to 5000 nM with MM1S cells, 100 to 5000 nM with Z138 cells and above 30 µM in the test with 3T3 cells.
Turning to `NC(=O)/C(=C/n1cnc(-c2cc(C(F)(F)F)cc(C(F)(F)F)c2)n1)c1cccc(S(=O)(=O)N2CCC(F)(F)C2)c1` [Compound 128, (E)-3-(3-(3,5-bis(trifluoromethyl)phenyl)-1H-1,2,4-triazol-1-yl)-2-(3-(3,3-difluoropyrrolidin-1-ylsulfonyl)phenyl)acrylamide], the half-maximal inhibitory concentration (IC50) in the test with MM1S cells was above 30000 nM; in the test on Z138 cells, 100 to 5000 nM; with 3T3 cells it was 0.1 to 5 µM.
In the same order, the values of `NC(=O)/C(=C/n1cnc(-c2cc(C(F)(F)F)cc(C(F)(F)F)c2)n1)c1ccc(S(=O)(=O)N2CCCCC2)cc1` [Compound 109, (E)-3-(3-(3,5-bis(trifluoromethyl)phenyl)-1H-1,2,4-triazol-1-yl)-2-(4-(piperidin-1-ylsulfonyl)phenyl)acrylamide] are 100 to 5000 nM, 100 to 5000 nM and 0.1 to 5 µM.
In the case of `CS(=O)(=O)Nc1cccc(/C(=C\n2cnc(-c3cc(C(F)(F)F)cc(C(F)(F)F)c3)n2)C(N)=O)c1` [Compound 102, (E)-3-(3-(3,5-bis(trifluoromethyl)phenyl)-1H-1,2,4-triazol-1-yl)-2-(3-(methylsulfonamido)phenyl)acrylamide], the IC50 with MM1S cells was 100 to 5000 nM; with Z138 cells it was 100 to 5000 nM; with 3T3 cells, above 30 µM.
With `NC(=O)/C(=C/n1cnc(-c2cc(C(F)(F)F)cc(C(F)(F)F)c2)n1)c1cccc(S(=O)(=O)N2CCC(C(F)(F)F)CC2)c1` [Compound 126, (E)-3-(3-(3,5-bis(trifluoromethyl)phenyl)-1H-1,2,4-triazol-1-yl)-2-(3-(4-(trifluoromethyl)piperidin-1-ylsulfonyl)phenyl)acrylamide], the IC50 in the test with MM1S cells is 5000 to 30000 nM; in the test with Z138 cells it was 100 to 5000 nM; with 3T3 cells it was above 30 µM.
The corresponding values for `NC(=O)/C(=C/n1cnc(-c2cc(C(F)(F)F)cc(C(F)(F)F)c2)n1)c1cccc(S(=O)(=O)N2CC(F)(F)C2)c1` [Compound 121, (E)-3-(3-(3,5-bis(trifluoromethyl)phenyl)-1H-1,2,4-triazol-1-yl)-2-(3-(3,3-difluoroazetidin-1-ylsulfonyl)phenyl)acrylamide] are 100 to 5000 nM, 100 to 5000 nM and above 30 µM.
On to `NC(=O)/C(=C/n1cnc(-c2cc(C(F)(F)F)cc(C(F)(F)F)c2)n1)c1ccc(S(=O)(=O)N2CCC(F)(F)CC2)cc1` [Compound 105, (E)-3-(3-(3,5-bis(trifluoromethyl)phenyl)-1H-1,2,4-triazol-1-yl)-2-(4-(4,4-difluoropiperidin-1-ylsulfonyl)phenyl)acrylamide], for which the results for the IC50 in the test on MM1S cells, in the test with Z138 cells and in the test with 3T3 cells were below 100 nM, below 100 nM and 0.1 to 5 µM, respectively.
Turning to `NC(=O)/C(=C/n1cnc(-c2cc(C(F)(F)F)cc(C(F)(F)F)c2)n1)c1cccc(S(=O)(=O)N2CCCC2)c1` [Compound 125, (E)-3-(3-(3,5-bis(trifluoromethyl)phenyl)-1H-1,2,4-triazol-1-yl)-2-(3-(pyrrolidin-1-ylsulfonyl)phenyl)acrylamide], the IC50 in the test with MM1S cells is 100 to 5000 nM; in the test with Z138 cells, 100 to 5000 nM; in the test with 3T3 cells, above 30 µM.
For the compound `NC(=O)/C(=C/n1cnc(-c2cc(C(F)(F)F)cc(C(F)(F)F)c2)n1)c1ccc(S(=O)(=O)N2CCC2)cc1` [Compound 107, (E)-2-(4-(azetidin-1-ylsulfonyl)phenyl)-3-(3-(3,5-bis(trifluoromethyl)phenyl)-1H-1,2,4-triazol-1-yl)acrylamide], the values for the IC50 in the test on MM1S cells, in the test with Z138 cells and with 3T3 cells were below 100 nM, below 100 nM and 0.1 to 5 µM, respectively.
